Measurements reported in PubChem BioAssay AID1259407 (Chemical Carcinogenesis Research Information System (CCRIS), 2018).
Calls of active or inactive are those of the source. No rule for the calls is given here.

Test system: CCRIS mutagenicity, Ames/micronucleus/aberration tests
Experiment: CCRIS mutagenicity studies
[1] = Test System: AMES SALMONELLA TYPHIMURIUM, Strain/Indicator: TA98, Metabolic Activation: NONE, Method: STANDARD PLATE
[2] = Test System: AMES SALMONELLA TYPHIMURIUM, Strain/Indicator: TA100, Metabolic Activation: NONE, Method: STANDARD PLATE
[3] = Test System: AMES SALMONELLA TYPHIMURIUM, Strain/Indicator: TA1535, Metabolic Activation: NONE, Method: STANDARD PLATE
[4] = Test System: AMES SALMONELLA TYPHIMURIUM, Strain/Indicator: TA1538, Metabolic Activation: NONE, Method: STANDARD PLATE
[5] = Test System: AMES SALMONELLA TYPHIMURIUM, Strain/Indicator: TA98, Metabolic Activation: RAT, LIVER, S-9, AROCLOR 1254, Method: STANDARD PLATE
[6] = Test System: AMES SALMONELLA TYPHIMURIUM, Strain/Indicator: TA100, Metabolic Activation: RAT, LIVER, S-9, AROCLOR 1254, Method: STANDARD PLATE
[7] = Test System: AMES SALMONELLA TYPHIMURIUM, Strain/Indicator: TA1535, Metabolic Activation: RAT, LIVER, S-9, AROCLOR 1254, Method: STANDARD PLATE

Compound: COP(=S)(OC)SCN1C(=O)c2ccccc2C1=O
- mutagenic call (Test System: AMES SALMONELLA TYPHIMURIUM, Strain/Indicator: TA97, Metabolic Activation: NONE, Method: STANDARD PLATE): active; positive
- mutagenic call (Test System: AMES SALMONELLA TYPHIMURIUM, Strain/Indicator: TA97, Metabolic Activation: RAT, LIVER, S-9, DELOR 103, Method: STANDARD PLATE): active; positive
- mutagenic call (Test System: AMES SALMONELLA TYPHIMURIUM, Strain/Indicator: TA97, Metabolic Activation: RAT, LIVER, S-9, PHENOBARBITAL, Method: STANDARD PLATE): active; positive
- mutagenic call [1]: inactive; negative
- mutagenic call (Test System: AMES SALMONELLA TYPHIMURIUM, Strain/Indicator: TA98, Metabolic Activation: RAT, LIVER, S-9, DELOR 103, Method: STANDARD PLATE): inactive; negative
- mutagenic call (Test System: AMES SALMONELLA TYPHIMURIUM, Strain/Indicator: TA98, Metabolic Activation: RAT, LIVER, S-9, PHENOBARBITAL, Method: STANDARD PLATE): inactive; negative
- mutagenic call [2]: active; positive
- mutagenic call (Test System: AMES SALMONELLA TYPHIMURIUM, Strain/Indicator: TA100, Metabolic Activation: RAT, LIVER, S-9, DELOR 103, Method: STANDARD PLATE): active; positive
- mutagenic call (Test System: AMES SALMONELLA TYPHIMURIUM, Strain/Indicator: TA100, Metabolic Activation: RAT, LIVER, S-9, PHENOBARBITAL, Method: STANDARD PLATE): active; positive
- mutagenic call (Test System: AMES SALMONELLA TYPHIMURIUM, Strain/Indicator: TA100, Metabolic Activation: S-9 MIX, Method: STANDARD PLATE): active; positive
- mutagenic call [3]: inactive; negative
- mutagenic call (Test System: AMES SALMONELLA TYPHIMURIUM, Strain/Indicator: TA1535, Metabolic Activation: RAT, LIVER, S-9, DELOR 103, Method: STANDARD PLATE): inactive; negative
- mutagenic call (Test System: AMES SALMONELLA TYPHIMURIUM, Strain/Indicator: TA1535, Metabolic Activation: RAT, LIVER, S-9, PHENOBARBITAL, Method: STANDARD PLATE): inactive; negative
- mutagenic call [4]: inactive; negative
- mutagenic call (Test System: AMES SALMONELLA TYPHIMURIUM, Strain/Indicator: TA1538, Metabolic Activation: RAT, LIVER, S-9, DELOR 103, Method: STANDARD PLATE): inactive; negative
- mutagenic call (Test System: AMES SALMONELLA TYPHIMURIUM, Strain/Indicator: TA1538, Metabolic Activation: RAT, LIVER, S-9, PHENOBARBITAL, Method: STANDARD PLATE): inactive; negative
- mutagenic call (Test System: CHINESE HAMSTER V-79, Strain/Indicator: V-79/6-THIOGUANINE, Metabolic Activation: NONE, Method: RESPREADING): inactive; negative
- mutagenic call (Test System: CHINESE HAMSTER V-79, Strain/Indicator: V-79/6-THIOGUANINE, Metabolic Activation: RAT, LIVER, S-9, Method: RESPREADING): active; positive

Compound: C=Cc1ccccn1
- mutagenic call (End Point: In vitro chromosomal aberrations, Test System: Chinese hamster lung (CHL/IU) cells, Metabolic Activation: Rat, Liver, S9, Phenobarbital and 5,6-benzoflavone): active; positive (structural changes)
- mutagenic call [1]: inactive; negative
- mutagenic call [5]: inactive; negative
- mutagenic call [2]: inactive; negative
- mutagenic call [6]: inactive; negative
- mutagenic call [3]: inactive; negative
- mutagenic call [7]: inactive; negative
- mutagenic call [4]: inactive; negative
- mutagenic call (Test System: AMES SALMONELLA TYPHIMURIUM, Strain/Indicator: TA1538, Metabolic Activation: RAT, LIVER, S-9, AROCLOR 1254, Method: STANDARD PLATE): inactive; negative
- mutagenic call (Test System: Ames Salmonella typhimurium, Strain/Indicator: TA98, Metabolic Activation: None, Method: Preincubation): inactive; negative
- mutagenic call (Test System: Ames Salmonella typhimurium, Strain/Indicator: TA98, Metabolic Activation: Rat, Liver, S9, Sodium phenobarbital and 5,6-benzoflavone (10%), Method: Preincubation): inactive; negative
- mutagenic call (Test System: Ames Salmonella typhimurium, Strain/Indicator: TA100, Metabolic Activation: None, Method: Preincubation): inactive; negative
- mutagenic call (Test System: Ames Salmonella typhimurium, Strain/Indicator: TA100, Metabolic Activation: Rat, Liver, S9, Sodium phenobarbital and 5,6-benzoflavone (10%), Method: Preincubation): inactive; negative
- mutagenic call (Test System: Ames Salmonella typhimurium, Strain/Indicator: TA1535, Metabolic Activation: None, Method: Preincubation): inactive; negative
- mutagenic call (Test System: Ames Salmonella typhimurium, Strain/Indicator: TA1535, Metabolic Activation: Rat, Liver, S9, Sodium phenobarbital and 5,6-benzoflavone (10%), Method: Preincubation): inactive; negative
- mutagenic call (Test System: Ames Salmonella typhimurium, Strain/Indicator: TA1537, Metabolic Activation: None, Method: Preincubation): inactive; negative
- mutagenic call (Test System: Ames Salmonella typhimurium, Strain/Indicator: TA1537, Metabolic Activation: Rat, Liver, S9, Sodium phenobarbital and 5,6-benzoflavone (10%), Method: Preincubation): inactive; negative
- mutagenic call (Test System: E. coli, Strain/Indicator: WP2uvrA/pKM101, Metabolic Activation: Rat, Liver, S9, Sodium phenobarbital and 5,6-benzoflavone (10%), Method: Preincubation): active; positive
- mutagenic call (Test System: UDS RAT HEPATOCYTES, Strain/Indicator: THY INCORP, Metabolic Activation: NONE): inactive; negative

Compound: O=NN1CSCC1C(=O)O (stereo unspecified)
- mutagenic call (Test System: AMES SALMONELLA TYPHIMURIUM, Strain/Indicator: TA98, Metabolic Activation: NONE, Method: PREINCUBATION): inactive; negative
- mutagenic call [1]: inactive; negative
- mutagenic call (Test System: AMES SALMONELLA TYPHIMURIUM, Strain/Indicator: TA98, Metabolic Activation: RAT, LIVER, S-9, AROCLOR 1254, Method: PREINCUBATION): inactive; negative
- mutagenic call [5]: inactive; negative
- mutagenic call (Test System: AMES SALMONELLA TYPHIMURIUM, Strain/Indicator: TA100, Metabolic Activation: NONE, Method: PREINCUBATION): inactive; negative
- mutagenic call [2]: inactive; negative
- mutagenic call (Test System: AMES SALMONELLA TYPHIMURIUM, Strain/Indicator: TA100, Metabolic Activation: RAT, LIVER, S-9, AROCLOR 1254, Method: PREINCUBATION): inactive; negative
- mutagenic call [6]: inactive; negative

Compound: O=C1c2cccc(S(=O)(=O)O)c2C(=O)c2cccc([N+](=O)[O-])c21
- mutagenic call [1]: active; positive
- mutagenic call [2]: inactive; negative
- mutagenic call [6]: inactive; negative
- mutagenic call [3]: inactive; negative
- mutagenic call [7]: inactive; negative
- mutagenic call (Test System: AMES SALMONELLA TYPHIMURIUM, Strain/Indicator: TA1537, Metabolic Activation: NONE, Method: STANDARD PLATE): inactive; negative
- mutagenic call (Test System: AMES SALMONELLA TYPHIMURIUM, Strain/Indicator: TA1537, Metabolic Activation: RAT, LIVER, S-9, AROCLOR 1254, Method: STANDARD PLATE): inactive; negative
- mutagenic call [4]: active; positive
- mutagenic call (Test System: AMES SALMONELLA TYPHIMURIUM, Strain/Indicator: TA1978, Metabolic Activation: NONE, Method: STANDARD PLATE): inactive; negative

Compound: COc1cc2c(c3oc(=O)c4c(c13)CCC4=O)[C@@]1(O)[C@@H](O2)O[C@@H]2O[C@@H]21
- mutagenic call (Test System: AMES SALMONELLA TYPHIMURIUM, Strain/Indicator: TA100, Metabolic Activation: NONE, Method: MICROSUSPENSION): active; positive
- mutagenic call (Test System: AMES SALMONELLA TYPHIMURIUM, Strain/Indicator: TA100, Metabolic Activation: RAT, LIVER, S-9, AROCLOR 1254, Method: MICROSUSPENSION): active; positive
